Assay results published in patent publication US11737999B2, “Amino acid compositions and methods for the treatment of post-acute sequelae of COVID-19” (AXCELLA HEALTH INC., priority 2021, dated 2023).

Legend:
IL-6 [1] = assay: IL-6 cytokine secretion in primary human hepatic stellate cells stimulated with TNFα; format: cell-based; conditions: for Fold Change IL-6 Secretion Normalized Per Cell: Valine 234 μM (plasma level, reference)
Col1a1 = Col1a1 gene expression (RT-qPCR) in primary human hepatic stellate cells stimulated with TGFβ1; format: cell-based; conditions: for Col1a1 Fold Expression Relative to Control, Mean: single amino acid
Procollagen Iα1 = Procollagen Iα1 secretion (ELISA) in primary human hepatic stellate cells stimulated with TGFβ1; format: cell-based; conditions: for Procollagen lα1 Secretion (Fold Change of 1X), Mean: first donor; for Procollagen lα1 Secretion (Fold Change of 1X), Mean / Procollagen Iα1 Secretion, Mean: single amino acid
IL-6 [2] = assay: LPS-induced IL-6 secretion in primary human monocyte-derived macrophages; conditions: LPS, baseline subtracted values
TNF-α = assay: LPS-induced TNF-α secretion in primary human monocyte-derived macrophages; conditions: 0.15 ng/mL LPS
MCP1/CCL2 = MCP1/CCL2 secretion by ELISA in primary human hepatocytes with FFA + TNFα; format: cell-based
MCP-1 = MCP-1 chemokine secretion in primary human hepatic stellate cells stimulated with TNFα; format: cell-based
[3] = hepatic stellate cells, two donors
[4] = hepatic stellate cells, three donors
[5] = Donor 2, Conc. 234 μM (baseline)

CC(C)[C@H](N)C(=O)O [Valine, L-Valine]
Fold Change IL-6 Secretion Normalized Per Cell (IL-6 [1]; donor 1): 1.0000 fold change | Fold Change IL-6 Secretion Normalized Per Cell (IL-6 [1]; donor 2): 1.0000 fold change | IL-6 secretion (summary in words) (IL-6 [1]; [3]): no significant effect on IL-6 secretion | Col1a1 Fold Expression Relative to Control, Mean (Col1a1; first donor, 234 μM (baseline)): 1.00 fold | Col1a1 Fold Expression Relative to Control, Mean (Col1a1; first donor, 23420 μM): 1.00 fold | Col1a1 gene expression (summary in words) (Col1a1; [4]): did not significantly change Col1a1 gene expression in any donor | Col1a1 Fold Expression Relative to Control, Mean (Col1a1; second donor (Table 27), 234 μM (baseline)): 1.00 fold | Col1a1 Fold Expression Relative to Control, Mean (Col1a1; second donor (Table 27), 4684 μM): 1.05 fold | Col1a1 Fold Expression Relative to Control, Mean (Col1a1; second donor (Table 27), 11710 μM): 0.98 fold | Col1a1 Fold Expression Relative to Control, Mean (Col1a1; second donor (Table 27), 23420 μM): 1.05 fold | Col1a1 Fold Expression Relative to Control, Mean (Col1a1; second donor (Table 29), 4684 μM): 1.22 fold | Col1a1 Fold Expression Relative to Control, Mean (Col1a1; second donor (Table 29), 23420 μM): 1.13 fold | Procollagen lα1 Secretion (Fold Change of 1X), Mean (Procollagen Iα1; 4684 μM): 1.1203 fold | Procollagen lα1 Secretion (Fold Change of 1X), Mean (Procollagen Iα1; 11710 μM): 1.2069 fold | Procollagen lα1 Secretion (Fold Change of 1X), Mean (Procollagen Iα1; 23420 μM): 1.2139 fold | procollagen Iα1 secretion (summary in words) (Procollagen Iα1; [4]): significantly increased procollagen Iα1 secretion in only one of two donors | Procollagen Iα1 Secretion, Mean (Procollagen Iα1; second donor, Conc. 234 μM (baseline)): 1.0000 Fold Change of 1× | Procollagen Iα1 Secretion, Mean (Procollagen Iα1; second donor, Conc. 4684 μM): 1.2865 Fold Change of 1× | Procollagen Iα1 Secretion, Mean (Procollagen Iα1; second donor, Conc. 11710 μM): 1.2877 Fold Change of 1× | Procollagen Iα1 Secretion, Mean (Procollagen Iα1; second donor, Conc. 23420 μM): 1.3068 Fold Change of 1× | Procollagen Iα1 Secretion, Mean (Procollagen Iα1; third donor, Conc. 234 μM (baseline)): 1.0000 Fold Change of 1× | Procollagen Iα1 Secretion, Mean (Procollagen Iα1; third donor, Conc. 4684 μM): 1.0428 Fold Change of 1× | Procollagen Iα1 Secretion, Mean (Procollagen Iα1; third donor, Conc. 11710 μM): 1.0498 Fold Change of 1× | Procollagen Iα1 Secretion, Mean (Procollagen Iα1; third donor, Conc. 23420 μM): 1.1139 Fold Change of 1× | IL-6 Measurements, Mean (IL-6 [2]; Donor 1, Conc. 234 μM (baseline)): 0 | IL-6 Measurements, Mean (IL-6 [2]; [5]): −4.7E−15 | IL-6 Measurements, Mean (IL-6 [2]; Donor 2, Conc. 4684 μM): −4.528 | IL-6 Measurements, Mean (IL-6 [2]; Donor 2, Conc. 11710 μM): −1.196 | IL-6 Measurements, Mean (IL-6 [2]; Donor 2, Conc. 23420 μM): 4.396 | TNF-α Measurements Mean (baseline subtracted) (TNF-α; Donor 1, Conc. 4684 μM): −40.37 | TNF-α Measurements Mean (baseline subtracted) (TNF-α; Donor 1, Conc. 11710 μM): −41.77 | TNF-α Measurements Mean (baseline subtracted) (TNF-α; Donor 1, Conc. 23420 μM): −14.98 | TNF-α Measurements Mean (baseline subtracted) (TNF-α; [5]): −4.7E−15 | TNF-α Measurements Mean (baseline subtracted) (TNF-α; Donor 2, Conc. 4684 μM): −0.00221 | TNF-α Measurements Mean (baseline subtracted) (TNF-α; Donor 2, Conc. 11710 μM): −0.835 | TNF-α Measurements Mean (baseline subtracted) (TNF-α; Donor 2, Conc. 23420 μM): −1.251 | TNF-α Measurements Mean (baseline subtracted) (TNF-α; Donor 3, Conc. 234 μM (baseline)): −2.4E−15 | TNF-α Measurements Mean (baseline subtracted) (TNF-α; Donor 3, Conc. 4684 μM): 0.126 | TNF-α Measurements Mean (baseline subtracted) (TNF-α; Donor 3, Conc. 11710 μM): −2.599 | TNF-α Measurements Mean (baseline subtracted) (TNF-α; Donor 3, Conc. 23420 μM): 3.688 | MCP1 expression relative to Control, Mean (MCP1/CCL2; Donor 1, Conc. 234 μM): −2.4E−15 | MCP1 expression relative to Control, Mean (MCP1/CCL2; Donor 1, Conc. 4684 μM): 23.6867 | MCP1 expression relative to Control, Mean (MCP1/CCL2; Donor 1, Conc. 11710 μM): 77.73 | MCP1 expression relative to Control, Mean (MCP1/CCL2; Donor 1, Conc. 23420 μM): 14.17 | MCP1 expression relative to Control, Mean (MCP1/CCL2; Donor 2, Conc. 234 μM): −1.4E−14 | MCP1 expression relative to Control, Mean (MCP1/CCL2; Donor 2, Conc. 4684 μM): 10.79 | MCP1 expression relative to Control, Mean (MCP1/CCL2; Donor 2, Conc. 11710 μM): 38.25 | MCP1 expression relative to Control, Mean (MCP1/CCL2; Donor 2, Conc. 23420 μM): −30.7921 | MCP1/CCL2 secretion (summary in words) (MCP1/CCL2; primary human hepatocytes, two healthy donors): did not have an effect on MCP1/CCL2 secretion | Fold Change MCP1 Secretion Normalized Per Cell, Mean (MCP-1; donor 3, Conc. 234 μM): 1.0000 Fold Change | Fold Change MCP1 Secretion Normalized Per Cell (MCP-1; donor 4, Valine 234 μM (plasma level, reference)): 1.0000 fold change | MCP-1 secretion (summary in words) (MCP-1; [3]): no significant impact on MCP-1 secretion
